Data on one molecule can be found in patent publication US20060275812A1, “Assay for agonists and antagonists of ion channels and for regulators of genetic expression” (University of Pittsburgh of the Commonwealth System of …, priority 2005, published 2006).

The assay has as its system vTT infected 7b cells. The assay is described as follows: Detection of apoptosis (DePsipher MPT; CaspACE activated caspases). In kind it is cell-based. To be noted: overnight capsaicin (3 μm) stimulation. As for the experimental part: Detection of Apoptosis. The DePsipher kit (R&D systems, Minneapolis, Minn.) was used to detect the initiation of mitochondrial permeability transition (MPT) in 7b cells. Briefly, vTT or QOZ infected cells (12 hpi, 0.1 PFU/cell) were incubated with 3 μm capsaicin for one hour at 37° C. in a 5% CO2 incubator. Cells were then loaded with 1 μl DePsipher/ml in pre-warmed culture media for 15-20 min at 37° C. in a 5% CO2 incubator. Following two washes in prewarmed media, cells were immediately imaged using an inverted fluorescence microscope (Carl Zeiss Inc.). For activated caspase detection, the CaspACE FITC-VAD-FMK In-Situ Marker kit (Promega, Madison, Wis.) was used. Briefly, CaspACE FITC-VAD-FMK was added to a final concentration of 10 μM to 7b cells infected with vTT or QOZ virus (12 hpi, 0.3 PFU/cell). Cells were incubated for 20 minutes at 37° C. in a 5% CO2 incubator. Following two washes in PBS, cells were fixed for 30 minutes in 10% formalin, washed three times with PBS and imaged using an inverted fluorescence microscope (Carl Zeiss Inc.).

As to `COc1cc(CNC(=O)CCCC/C=C/C(C)C)ccc1O` [capsaicin], the activated caspases result is reported as “positive”.
